Where two headings read alike, the source gives them in different places.
Columns and labels:
Type in all cases: cell-based, Mycobacterium tuberculosis
[1] = test system: M tuberculosis T3609, resistant to ofloxacin (OFX) and streptomycin; parameters: MIC 2: MIC of the substance tested in combination / MIC 1: MIC of the substance tested alone: unit not given beside the values; details: for MIC 2: MIC of the substance tested in combination / MIC 1: MIC of the substance tested alone: strain T3609
[2] = test system: M. tuberculosis T113, resistant to isoniazid (INH), rifampicin (RIF), ethambutol (ETB) and ofloxacin (OFX); parameters: MIC 2: MIC of the substance tested in combination / MIC 1: MIC of the substance tested alone: unit not given beside the values; details: for MIC 2: MIC of the substance tested in combination / MIC 1: MIC of the substance tested alone: strain T113
M. tuberculosis = details: all the strains (H37Rv, T3609, T113)

C[C@H]1COc2c(N3CCN(C)CC3)c(F)cc3c(=O)c(C(=O)O)cn1c23 [LVX, levofloxacin]
MIC 2: MIC of the substance tested in combination ([1]; combination MEF + LVX): 2.50
MIC 1: MIC of the substance tested alone [1]: 2.50
MIC 2: MIC of the substance tested in combination ([2]; combination MEF + LVX): 0.31
MIC 1: MIC of the substance tested alone [2]: 0.62

NC(=O)c1cnccn1 [PYR, pyrazinamide]
MIC 1: MIC of the substance tested alone [1]: >100
MIC 1: MIC of the substance tested alone [2]: >100

CC[C@@H](CO)NCCN[C@@H](CC)CO [ETB, ethambutol]
MIC 2: MIC of the substance tested in combination ([2]; combination MFL + ETB): 12.5
MIC 1: MIC of the substance tested alone [2]: 25.0

C[C@@H]1CN(c2c(F)c(N)c3c(=O)c(C(=O)O)cn(C4CC4)c3c2F)C[C@H](C)N1 [SPR, sparfloxacin]
MIC 2: MIC of the substance tested in combination ([1]; combination MFL + SPR): 0.62
MIC 1: MIC of the substance tested alone [1]: 1.25
MIC 2: MIC of the substance tested in combination ([2]; combination MFL + SPR): 0.12
MIC 1: MIC of the substance tested alone [2]: 0.12

O=C(O)c1cn(C2CC2)c2cc(N3CCNCC3)c(F)cc2c1=O [CPX, ciprofloxacin]
MIC 2: MIC of the substance tested in combination ([1]; combination MEF + CPX): 3.12
MIC 1: MIC of the substance tested alone [1]: 5.00
MIC 2: MIC of the substance tested in combination ([2]; combination MEF + CPX): 0.31
MIC 1: MIC of the substance tested alone [2]: 0.62

COc1c(N2CCNC(C)C2)c(F)cc2c(=O)c(C(=O)O)cn(C3CC3)c12 (stereo not drawn) [GAT, gatifloxacin]
MIC 2: MIC of the substance tested in combination ([1]; combination MFL + GAT): 0.31
MIC 1: MIC of the substance tested alone [1]: 0.62
MIC 2: MIC of the substance tested in combination ([2]; combination MFL + GAT): 0.15
MIC 1: MIC of the substance tested alone [2]: 0.12

CC(=O)NC[C@H]1CN(c2ccc(N3CCOCC3)c(F)c2)C(=O)O1 [LYN, linezolid]
MIC 2: MIC of the substance tested in combination ([2]; combination MFL + LYN): 0.31
MIC 1: MIC of the substance tested alone [2]: 0.50

OC(c1cc(C(F)(F)F)nc2c(C(F)(F)F)cccc12)C1CCCCN1 (stereo not drawn) [Mefloquine, mefloquine]
MIC 2: MIC of the substance tested in combination ([1]; combination MEF + CPX): 3.12
MIC 2: MIC of the substance tested in combination ([1]; combination MEF + LVX): 2.50
MIC 2: MIC of the substance tested in combination ([1]; combination MFL + GAT): 0.31
MIC 2: MIC of the substance tested in combination ([1]; combination MFL + INH): 0.015
MIC 2: MIC of the substance tested in combination ([1]; combination MFL + MOX): 0.62
MIC 2: MIC of the substance tested in combination ([1]; combination MFL + OFX): 2.5
MIC 2: MIC of the substance tested in combination ([1]; combination MFL + PYR): 0.62
MIC 2: MIC of the substance tested in combination ([1]; combination MFL + SPR): 0.62
MICcombination ([1]; strain T3609, Tables 1B and 2A): 25 µg/mL
MIC 2: MIC of the substance tested in combination ([2]; combination MEF + CPX): 0.31
MIC 2: MIC of the substance tested in combination ([2]; combination MEF + LVX): 0.31
MIC 2: MIC of the substance tested in combination ([2]; combination MFL + GAT): 0.15
MIC 2: MIC of the substance tested in combination ([2]; combination MFL + INH): 3.12
MIC 2: MIC of the substance tested in combination ([2]; combination MFL + LYN): 0.31
MIC 2: MIC of the substance tested in combination ([2]; combination MFL + MOX): 0.31
MIC 2: MIC of the substance tested in combination ([2]; combination MFL + OFX): 0.62
MIC 2: MIC of the substance tested in combination ([2]; combination MFL + PYR): 0.62
MIC 2: MIC of the substance tested in combination ([2]; combination MFL + SPR): 0.12
MICcombination ([2]; strain T113, Table 2B): 25 µg/mL
cross-resistance (MIC across strains) (M. tuberculosis): no cross-resistance

NNC(=O)c1ccncc1 [INH, isoniazid]
MIC 2: MIC of the substance tested in combination ([1]; combination MFL + INH): 0.015
MIC 1: MIC of the substance tested alone [1]: 0.5
MIC 2: MIC of the substance tested in combination ([2]; combination MFL + INH): 3.12
MIC 1: MIC of the substance tested alone [2]: 6.25

CC1COc2c(N3CCN(C)CC3)c(F)cc3c(=O)c(C(=O)O)cn1c23 (stereo not drawn) [OFX, ofloxacin]
MIC 2: MIC of the substance tested in combination ([1]; combination MFL + OFX): 2.5
MIC 1: MIC of the substance tested alone [1]: 5.0
MIC 2: MIC of the substance tested in combination ([2]; combination MFL + OFX): 0.62
MIC 1: MIC of the substance tested alone [2]: 1.25

COc1c(N2C[C@@H]3CCCN[C@@H]3C2)c(F)cc2c(=O)c(C(=O)O)cn(C3CC3)c12 [MOX, moxifloxacin]
MIC 2: MIC of the substance tested in combination ([1]; combination MFL + MOX): 0.62
MIC 1: MIC of the substance tested alone [1]: 1.25
MIC 2: MIC of the substance tested in combination ([2]; combination MFL + MOX): 0.31
MIC 1: MIC of the substance tested alone [2]: 0.25
